Experimental data as given in article PMC5267425, “Identification of small molecule modulators of HIV-1 Tat and Rev protein accumulation” (Retrovirology, 2017).
Several values for one entry are separate records, joined by “and”; a condition that tells them apart may be missing. Identical values can stand only once.

Tested on: cellular gene expression in HeLa rtTA HIV∆Mls cells
Conditions: 9147791-treated cells, replicates

For `Cc1cc(NCc2cccnc2)n2ncc(-c3ccc(Cl)cc3)c2n1` [Compound 791, 3-(4-chlorophenyl)-5-methyl-N-(3-pyridinylmethyl)pyrazolo[1,5-a]pyrimidin-7-amine], the ACTN1 expression level was 70.54 and 65.87, the ADI1 expression level was 21.28 and 20.50 and the AGPAT2 expression level was 26.74 and 28.83. The ALDOC expression level was 1.08 and 1.02, the ANXA5 expression level was 191.66 and 185.16 and the ANXA6 expression level was 69.55 and 59.50. The AP2M1 expression level was 238.02 and 237.30, the APOBEC3B expression level was 8.21 and 6.81 and the ARF1 expression level was 151.10 and 145.27. For the same molecule, the ARHGAP11A expression level was 26.24 and 25.64, the ARPC5 expression level was 71.19 and 65.59 and the ATP6V0A1 expression level was 15.83 and 16.80. The ATP8B1 expression level was 0.78 and 0.65, the B3GNT1 expression level was 9.03 and 9.24 and the BAT3 expression level was 82.22 and 79.10. For the same molecule, the BCOR expression level was 21.09 and 21.93, the BCORL1 expression level was 5.39 and 5.54 and the BHLHB9 expression level was 1.05 and 1.03. The BMPR1B expression level was 0.73 and 0.81, the BST2 expression level was 245.44 and 203.71 and the C1orf115 expression level was 6.22 and 6.65. The C3orf59 expression level was 1.02 and 1.00, the C5orf13 expression level was 10.12 and 9.25 and the C5orf15 expression level was 25.66 and 24.81. The C6orf145 expression level was 25.69 and 26.94, the C9orf3 expression level was 5.07 and 4.02 and the C9orf163 expression level was 0.72 and 0.74. For the same molecule, the C10orf76 expression level was 6.17 and 6.53, the C10orf114 expression level was 6.12 and 7.21 and the C14orf147 expression level was 24.04 and 21.03. For the same molecule, the C19orf28 expression level was 20.85 and 20.05, the C20orf29 expression level was 8.83 and 7.98 and the CALD1 expression level was 28.16 and 24.92. For the same molecule, the CAP2 expression level was 6.21 and 6.88, the CAPN1 expression level was 47.66 and 45.36 and the CASC5 expression level was 8.52 and 8.14. The CAV2 expression level was 13.23 and 12.84, the CCDC85C expression level was 13.99 and 13.05 and the CCDC99 expression level was 61.28 and 55.39. For the same molecule, the CCDC102A expression level was 2.18 and 1.83, the CCDC150 expression level was 3.18 and 3.23 and the CD276 expression level was 44.64 and 46.66. For the same molecule, the CDC42EP3 expression level was 3.11 and 2.92, the CDK1 expression level was 61.18 and 65.43 and the CDKL1 expression level was 6.48 and 6.73. The CDKN2C expression level was 30.46 and 26.27, the CGN expression level was 1.21 and 1.38 and the CHN1 expression level was 6.56 and 6.26. For the same molecule, the CLPTM1L expression level was 137.08 and 134.64, the CNN2 expression level was 47.78 and 46.33 and the CNNM3 expression level was 10.75 and 11.30. For the same molecule, the COMMD1 expression level was 12.70 and 12.99, the CRTC3 expression level was 31.32 and 28.75 and the CSRP2 expression level was 30.49 and 33.02. For the same molecule, the CTNND1 expression level was 21.98 and 23.56, the CTTNBP2 expression level was 2.16 and 2.53 and the CYTH3 expression level was 13.78 and 13.70. For the same molecule, the DAB2 expression level was 15.91 and 16.84, the DAG1 expression level was 27.42 and 30.65 and the DBF4B expression level was 6.80 and 6.36. For the same molecule, the DCAF6 expression level was 12.78 and 12.38, the DDR1 expression level was 23.20 and 20.76 and the DNMT3L expression level was 1.04 and 0.90. For the same molecule, the DOCK1 expression level was 11.83 and 12.65, the DOCK8 expression level was 1.41 and 1.38 and the DUSP1 expression level was 278.63 and 269.45. The DUSP8 expression level was 0.79 and 0.93, the ECT2 expression level was 33.55 and 30.42 and the EMP2 expression level was 8.82 and 9.39. For the same molecule, the EPB41L4A expression level was 4.70 and 5.12, the ERCC2 expression level was 21.00 and 19.80 and the ESAM expression level was 3.07 and 3.33. The ESYT2 expression level was 32.11 and 32.37, the F2R expression level was 28.45 and 29.47 and the FAM13B expression level was 9.53 and 8.84. For the same molecule, the FAM83D expression level was 34.40 and 31.73, the FAM127A expression level was 137.05 and 133.03 and the FARP1 expression level was 32.38 and 34.32. The FBXL2 expression level was 3.80 and 3.59, the FDFT1 expression level was 43.70 and 46.85 and the FGFR3 expression level was 5.45 and 6.20. The FSTL1 expression level was 31.24 and 29.61, the FUBP1 expression level was 41.68 and 44.21 and the FZR1 expression level was 11.76 and 10.90. For the same molecule, the GALNT2 expression level was 52.29 and 59.07, the GATSL1 expression level was 3.56 and 3.66 and the GLCCI1 expression level was 5.50 and 5.98. For the same molecule, the GLI2 expression level was 1.61 and 1.91, the GNG10 expression level was 35.68 and 34.10 and the GPR176 expression level was 6.89 and 6.58. For the same molecule, the GTF3C1 expression level was 29.06 and 29.38, the H3F3A expression level was 242.14 and 260.31 and the HACL1 expression level was 8.70 and 8.40. For the same molecule, the HDAC1 expression level was 74.08 and 73.05, the HEG1 expression level was 6.29 and 6.77 and the HIST1H3B expression level was 1.94 and 1.96. For the same molecule, the HMGB3 expression level was 28.50 and 26.71, the HMGN3 expression level was 74.54 and 69.90 and the HNRNPH2 expression level was 55.22 and 51.55. For the same molecule, the HSPB8 expression level was 24.33 and 26.14, the ICK expression level was 4.87 and 5.19 and the ID3 expression level was 119.77 and 102.82. The IDH2 expression level was 17.89 and 18.64, the IDI1 expression level was 13.51 and 16.55 and the IKBIP expression level was 8.02 and 8.05. For the same molecule, the INCENP expression level was 24.44 and 25.00, the INO80C expression level was 1.90 and 1.87 and the JUB expression level was 13.13 and 12.45. For the same molecule, the KANK2 expression level was 20.68 and 20.72, the KHDRBS1 expression level was 80.26 and 74.92 and the KIF3B expression level was 14.85 and 14.03. For the same molecule, the KIF5C expression level was 0.60 and 0.55, the KIF11 expression level was 24.10 and 21.47 and the KIF18B expression level was 12.16 and 12.54. The KIF20B expression level was 12.24 and 11.00, the KIFC1 expression level was 47.71 and 45.30 and the KITLG expression level was 11.50 and 12.57. The KLF9 expression level was 12.26 and 10.78, the KLHDC3 expression level was 56.38 and 53.87 and the KPNA2 expression level was 179.32 and 162.46. For the same molecule, the LAPTM4B expression level was 71.83 and 68.84, the LMO7 expression level was 19.87 and 20.69 and the LRRC16A expression level was 6.80 and 7.88. The MAML2 expression level was 2.44 and 2.29, the MANF expression level was 42.22 and 45.27 and the MAP3K14 expression level was 8.59 and 8.30.
